Entries after “also recorded” stand apart in the source; their conditions may differ.
Experiments:
[1] = tested on: chick embryo chorioallantoic membrane; assay: Chick embryo chorioallantoic membrane (CAM) assay; format: in vivo; conditions: 100 mg disk, after 48 hours
Protocol: Anti-angiogenic activity is evaluated in vivo by testing the ability of a compound to inhibit the proliferation of new blood vessel cells (angiogenesis). A suitable assay is the chick embryo chorioallantoic membrane (CAM) assay described by Crum et al., Science 230:1375 (1985). See also, U.S. Pat. No. 5,001,116, which is hereby incorporated by reference in its entirety. Briefly, fertilized chick embryos are removed from their shell on day 3 or 4, and a methylcellulose disc containing the drug is implanted on the chorioallantoic membrane. The embryos are examined 48 hours later and, if a clear avascular zone appears around the disc, the diameter of that zone is measured.

tubulin [2] = tested on: T1, tubulin; assay: Tubulin polymerization inhibition in vitro (turbidity at 350 nm); format: biochemical; conditions: for IC50: 1.0 M glutamate, 10 μM tubulin
T1 construct: other: 1.0 M glutamate, 10 μM tubulin; Effect on tubulin polymerization / microtubule assembly
Protocol: Microtubule assembly is followed in a temperature controlled recording spectrophotometer. For details and a discussion, see R. D'Amato et al., Proc Natl Acad Sci USA, 91:3964-3968 (1994).
A typical reaction mixture, which will have a final reaction volume of […], contains 1.0 M monosodium glutamate (pH 6.6), 1.0 mg/ml (10 μM) tubulin, 1.0 MM MgCl2, 4% (v/v) dimethylsulfoxide, and a compound to be tested at the desired concentration (typically 0.1 to 100 μM). The reaction mixtures are incubated for 15 min. at 37° C. and then chilled on ice. After addition of 10 μl 12.5 mM GTP (and, optionally, 0.33 mg/ml microtubule-associated proteins, or MAPs) to initiate polymerization, each reaction mixture is transferred to a cuvette at 0° C., and a baseline established. At time zero, the temperature controller of the spectrophotometer is set to a target temperature, typically between 25 and 37° C. Microtubule assembly is monitored by observing an increase in turbidity at 350 nm as the temperature of the reaction mixture rises to the set target temperature.
The results are presented in Table 1 as IC50 values (μM) for inhibition of tubulin polymerization. Alternatively, inhibition of microtubule assembly can be detected by transmission electron microscopy, as described in U.S. Pat. No. 5,504,074 which is hereby incorporated by reference in its entirety.

tubulin [3] = tested on: T2, tubulin; assay: Enhancement of glutamate- or MAP-induced tubulin assembly, turbidimetric curves (FIGS. 4 and 5); format: biochemical; conditions: for Effect on MAP-induced tubulin assembly: 0.75 mg/ml MAPs, 1.0 mg/ml tubulin, 25° C.
T2 construct: Activity in room temperature assay; other: no polymerization in the absence of drug; other: GTP-only system, critical concentrations
Protocol: In those cases where acceleration of tubulin polymerization is observed, an IC50 value for inhibition of polymerization is of course not derivable. Results for such compounds may be presented in the form of turbidimetric curves, e.g. as presented in FIGS. 4 and 5 for representative compounds 13 and 18.
FIG. 4: Each reaction mixture contained 0.8 M glutamate (pH 6.6), 0.4 mM GTP, 12 μM (1.2 mg/ml) tubulin, 4% (v/v) dimethyl sulfoxide, and compound 13 or 18 as indicated. Baselines were established at 0°, and at time zero the temperature controller was set at 26°. At the time indicated by the dashed line, the temperature controller was set at 0°. A. Curve 1, no drug; curve 2, 2 μM compound 13; curve 3, 5 μM 7; curve 4, 10 μM 7; curve 5, 40 μM 7; curve 6, 40 μM 14. B. Curve 1, no drug; curve 2, 2 μM compound 18; curve 3, 5 μM 18; curve 4, 10 μM 18; curve 5, 40 μM 18.
FIG. 5: Each reaction mixture contained 0.1 M Mes (pH 6.9 with NaOH in 0.5 M stock solution), 0.1 mM GTP, 10 μM (1.0 mg/ml) tubulin, 0.75 mg/ml heat-treated MAPs, 4% dimethyl sulfoxide, and drug as indicated. […] There was no change in turbidity in any reaction mixture. At this point the temperature controller was set at 10°, and subsequent temperature changes, as indicated, were made at the times indicated by the vertical dashed lines. Curve 1, no drug; curve 2, 10 μM paclitaxel; curve 3, 10 μM compound 13; curve 4, 20 μM 7; curve 5, 40 μM 7; curve 6, 10 μM compound 18.

tubulin [4] = tested on: T2, tubulin; assay: Tubulin polymerization inhibition in vitro (turbidity at 350 nm); format: biochemical; parameters: key: *: Accelerates tubulin polymerization; conditions: no IC50 derivable
tubulin [5] = tested on: T2, tubulin; assay: Enhancement of glutamate- or MAP-induced tubulin assembly, turbidimetric curves (FIGS. 4 and 5); format: biochemical
tumor cells = assay: Inhibition of cell growth in the NCI Developmental Therapeutics Program tumor cell screen; format: cell-based; conditions: mean graph midpoint for all cell lines tested
Protocol: The compounds of the invention were tested for inhibition of cell growth in the established tumor cell screen of the National Cancer Institute Developmental Therapeutics Program. See Boyd et al., Drug Dev. Res., 34:91-109 (1995). Results are presented in Table 1 as the “MGM” values (mean graph midpoint, in μM, for all cell lines tested).

tubulin [6] = tested on: T2, tubulin; assay: Critical concentration of tubulin for assembly, turbidimetric (FIG. 6); format: biochemical
Protocol: FIG. 6 presents critical concentrations, obtained at 30° C., of tubulin with paclitaxel and compound 13. A: MAPs -and GTP-dependent assembly without drug and in the presence of 10 μM paclitaxel or 10 μM 13. B: GTP-dependent, MAP-independent assembly with 10 μM paclitaxel or 10 μM 13.
Measurement of the critical concentration with and without MAPs with paclitaxel, and again with 13, was therefore carried out to provide some idea of the comparative activity of these agents. The data are presented in FIG. 6, which yield critical concentrations, obtained at 30° C., of 1.4, 0.06, and 0.50 mg/ml for MAP-and GTP-dependent assembly without drug and in the presence of 10 μM paclitaxel or 10 μM 13, respectively, and 0.20 and 1.4 mg/ml for GTP-dependent, MAP-independent assembly with 10 μM paclitaxel or 10 μM 13. […] (A constant weight ratio of MAPs to tubulin of 1:3 was used, because the suboptimal concentration of MAPs caused greater differences in the critical concentrations obtained.) Reaction mixtures (0.25 ml) contained 0.1 M Mes (pH 6.9), 100 μM GTP, 4% dimethyl sulfoxide, the indicated tubulin concentration (with heat-treated MAPs in 1:3 weight ratio to the tubulin, panel A only), and either 10 μM paclitaxel (▴), 10 μM compound 13 (◯), or no drug (▾). Cuvette contents were equilibrated at 0°, drugs were added, temperature was jumped to 30° (about one min), and the turbidity changes after a 20 min incubation measured.

tubulin [7] = tested on: T2, tubulin; assay: Polymer morphology by electron microscopy; format: biochemical; conditions: 40 μM 13 or 10 μM paclitaxel
From the text: It was possible that compounds 13 and 18 were not actually acting like paclitaxel in enhancing microtubule assembly and in stabilizing the microtubules formed in the course of the turbidity studies shown in FIG. 4, but that these agents were causing formation of polymers of aberrant morphology and temperature stability different from microtubules, such as occurs with vinca alkaloids. Polymer morphology was examined by electron microscopy. […] Even more important, when the reaction mixtures were returned to 0° C. for 15 min, no microtubules were visualized on grids prepared from the reaction mixture without drug.

Structure (SMILES)	IC50 (tubulin [2]) [µM]	melting point [°C]	Cytotoxicity (MGM μM) (tumor cells) [µM]	other results
COc1cc2c(cc1O)CC[C@@H]1[C@@H]2CC[C@]2(C)[C@@H](O)CC[C@@H]12 [2-methoxyestradiol]	–	–	–	Inhibition of cell mitosis and growth of new blood vessels [1]: inhibit cell mitosis and the growth of new blood vessels
CCOc1cc2c(cc1O)CC(=O)CC1C2CCC2(C)C(O)CCC12 (stereo not drawn) [Compound 9, B-Homo-3,170β-dihydroxy-2-ethoxyestra-1,3,5(10)-triene-7-one]	> 40	210 to 212	–	–
CCOc1cc2c(cc1O)CC(=NNS(=O)(=O)c1ccc(C)cc1)CC1C2CCC2(C)C(O)CCC12 (stereo not drawn) [Compound 10, B-Homo-2-ethoxy-3,17β-dihydroxyestra-1,3,5(10)-triene-7-one toluenesulfonyl-hydrazone]	> 40	–	–	–
CCOc1cc2c(cc1O)CCCC1C2CCC2(C)C(O)CCC12 (stereo not drawn) [Compound 11, B-Homo-2-ethoxy-3.17β-estradiol]	1.3	86 to 88	–	Effect on tubulin polymerization / microtubule assembly (tubulin [2]): inhibit tubulin polymerization
CCOc1cc2c(cc1OC(C)=O)CCCC1C2CCC2(C)C(OC(C)=O)CCC12 (stereo not drawn) [Compound 12, B-Homo-3,17β-diacetoxy-2-ethoxyestra-1,3,5(10)-triene]	> 40	98 to 100	–	–
CCOc1cc2c(cc1O)C(=O)CCC1C2CCC2(C)C(O)CCC12 (stereo not drawn) [Compound 14, B-Homo-2-ethoxy-6-oxoestra-1,3,5(10)-trien-3,17β-diol]	> 40	–	–	Effect on glutamate- and MAP-induced tubulin assembly (tubulin [3]): inactive
CCOc1cc2c(cc1O)C(=O)CC[C@@H]1[C@@H]2CC[C@]2(C)[C@@H](OC(C)=O)CC[C@@H]12 [Compound 18, B-Homo-17β-acetoxy-2-ethoxy-3-hydroxyestra-1,3,5(10)-trien-6-one]	–	–	–	Effect on tubulin polymerization / microtubule assembly (tubulin [2]): stimulate microtubule assembly; Effect on glutamate- and MAP-induced tubulin assembly (tubulin [3]): activity was largely retained; Effect on MAP-induced tubulin assembly (tubulin [3]): enhanced tubulin assembly; also recorded: less stimulatory than 13; also recorded: significantly less than that of paclitaxel; Tubulin polymerization inhibition, symbol instead of IC50 (tubulin [4]): *; Tubulin assembly in the absence of GTP (tubulin [5]): has not been observed
CCOc1cc2c(cc1OC(C)=O)C(=O)CCC1C2CCC2(C)C(O)CCC12 (stereo not drawn) [Compound 19, B-Homo-3-Acetoxy-2-ethoxy-17β-hydroxyestra-1,3,5(10)-trien-6-one]	> 40	–	–	Effect on glutamate- and MAP-induced tubulin assembly (tubulin [3]): inactive
CCOc1cc2c(cc1O)C(=NO)C[C@@H]1[C@@H]2CC[C@]2(C)[C@@H](OC(C)=O)CC[C@@H]12 [Compound 27, 17β-Acetoxy-2-ethoxy-6-hydroximinoestra-1,3,5(10)-triene-3-ol]	> 40	226 to 227	0.567	–
CCOc1cc2c(cc1O)NC(=O)CC1C2CCC2(C)C(O)CCC12 (stereo not drawn) [Compound 29, B-Homo-6-aza-2-ethoxy-3,17β-dihydroxyestra-1,3,5(10)-trien-7-one]	4	222 to 223	16.2	Effect on tubulin polymerization / microtubule assembly (tubulin [2]): inhibit tubulin polymerization
CCOc1cc2c(cc1O)NCCC1C2CCC2(C)C(O)CCC12 (stereo not drawn) [Compound 30, B-Homo-6-aza-2-ethoxyestra-1,3,5(10)-triene-3,17β-diol]	> 40	–	49.0	–
CCOc1cc2c(cc1OC(C)=O)N(C(C)=O)CCC1C2CCC2(C)C(OC(C)=O)CCC12 (stereo not drawn) [Compound 31, B-Homo-6-acetyl-6-aza-3,17β-diacetoxy-2-ethoxyestra-1,3,5(10)-triene]	> 40	–	38.0	–
CCOc1cc2c(cc1O)N(C(C)=O)CCC1C2CCC2(C)C(O)CCC12 (stereo not drawn) [Compound 32, B-Homo-6-acetyl-6-aza-2-ethoxyestra-1,3,5(10)-triene-3,17β-diol]	25	189 to 191	35.5	Effect on tubulin polymerization / microtubule assembly (tubulin [2]): inhibit tubulin polymerization
CCOc1cc2c(cc1O)N(CC)CCC1C2CCC2(C)C(O)CCC12 (stereo not drawn) [Compound 33, B-Homo-6-aza-2-ethoxy-6-ethylestra-1,3,5(10)-triene-3,17β-diol]	> 40	–	50.1	–
CC(=O)O[C@H]1C(=O)[C@@]2(C)[C@H]([C@H](OC(=O)c3ccccc3)[C@]3(O)C[C@H](OC(=O)[C@H](O)[C@@H](NC(=O)c4ccccc4)c4ccccc4)C(C)=C1C3(C)C)[C@]1(OC(C)=O)CO[C@@H]1C[C@@H]2O [paclitaxel, Paclitaxel, reference compound]	–	–	–	Critical concentration of tubulin, MAP- and GTP-dependent assembly (tubulin [6]; 30° C., 10 μM drug, MAPs:tubulin 1:3 by weight): 0.06 mg/mL; Critical concentration of tubulin, GTP-dependent, MAP-independent assembly (tubulin [6]; 30° C., 10 μM drug, no MAPs): 0.20 mg/mL; Affinity for tubulin polymers relative to compound 13 (tubulin [6]; from critical concentrations): 7-8 fold; Effect on MAP-induced tubulin assembly (tubulin [3]): much more extensive than that with compound 13; Cold stable microtubules after return to 0° C. for 15 min (tubulin [7]): abundant cold stable microtubules were observed; Assembly reaction when either MAPs or GTP was omitted (tubulin [5]; 10 μM tubulin, 40 μM compound 13 or 10 μM paclitaxel): a reaction was observed in both cases
